Source: patent US7416741B2, “Copper lowering treatment of inflammatory and fibrotic diseases” (The Regents of the University of Michigan, priority 2002, dated 2008)

Experiments:
α-smooth muscle actin = assay: α-Smooth muscle actin assay (ELISA) in lung homogenates; assay type: in vivo, mouse; settings: Ex 2 Exp 2; day 21; p=0.09
Protocol: α-Smooth muscle actin assay. De novo appearance of myofibroblasts is a hallmark of active fibrosis, and these cells are known as the primary source of interstitial collagen in pulmonary fibrosis (See e.g., K Zhang et al., Am. J. Pathol, 145:114-125 [1994]). Since α-smooth muscle actin is a marker of myofibroblast differentiation, the level of this protein in lung tissue homogenates was measured by ELISA as before (use same reference above for TGFβ assay by ELISA).

sheep = settings: cited from earlier work
TNFα = assay: Plasma TNFα in Con A treated mice; assay type: in vivo, mouse; settings: Ex 5 Exp 3; TM from 5 days before first of two Con A injections; 2 hrs after last; p=0.03
Description: In a third experiment, two Con A injections one week apart were given to 10 mice. Five of the mice had begun TM treatment 5 days prior to the first injection. All the mice were sacrificed 2 hrs after the last Con A injection.

TGFβ = assay: Lung TGFβ levels (ELISA or PAI-1 promoter-luciferase cell line), bleomycin model; assay type: in vivo, mouse
Protocol: Lung TGFβ levels were measured using either ELISA with a kit from R&D Systems (Minneapolis, Minn.), or using a cell line stably transfected with a plasminogen activator inhibitor-1 (PAI-1) promoter-luciferase construct (M Abe et al., Analytical Biochemistry, 216:276-284 [1994]). Briefly for the latter assay, mink lung epithelial cells transfected with the PAI-1 promoter construct were incubated with the indicated activated (by pre-acidification) test samples diluted (1:2 dilution) in fresh media. After a 24 hr incubation, the cells were lysed with reporter lysis buffer (Promega, Madison, Wis.). Luciferase activity was measured by the luciferase assay system (Promega) and read using a Reporter microplate luminometer (Turner Designs, Sunnyvale, Calif.). Human TGFβ1 (R&D Systems) was used as a standard.

serum ceruloplasmin (Cp) = assay: Copper status by serum ceruloplasmin (oxidase activity) in mice; assay type: in vivo, mouse; settings: for Ceruloplasmin Values: Ex 1 Exp 2
Description: Copper status. In the presence of TM therapy, copper status is difficult to assess by measuring serum copper directly, since a slowly turning over tripartite complex of TM, copper, and albumin accumulates, causing the serum copper to be elevated even though availability of copper is decreasing. However, the inventors have previously determined that serum ceruloplasmin (Cp) is a good surrogate marker of copper status (G J Brewer et al., Clin. Cancer, 6: 1-10 [2000]), because the liver secretes this copper containing protein into the blood at a rate dependent upon copper availability. Copper status was followed by assaying serum ceruloplasmin (Cp), by measuring its oxidase activity (K H Schosinsky et al., Clin. Chem., 20(12)1556-1563 [1974]). Blood was obtained from the tail vein of the mice. To avoid excessive bleeding, only one mouse from each group was bled at any time point during the study, and mice were rotated so that different mice were bled at the different time points. A Cp assay in all mice was done at time of sacrifice.
Copper status. In the presence of TM therapy, copper status cannot be assessed by direct measurement of serum copper because of the accumulation of a tripartite complex of TM, copper, and albumin that turns over slowly, causing the serum copper to be increased even though availability of copper is decreasing. […] Copper status was monitored by assaying serum ceruloplasmin on the basis of its oxidase activity in blood from the tail vein. To avoid excessive bleeding, one mouse from each group was bled at each time point; mice were rotated so that different mice were bled. A ceruloplasmin assay was conducted in each mouse when it was killed.

[1] = test system: bleomycin mouse model of pulmonary fibrosis; assay: Lung hydroxyproline assay in the bleomycin mouse model of pulmonary fibrosis; assay type: in vivo; settings: for Hydroxyproline: sacrifice day 21
Description: In the bleomycin mouse model, which is known to be dependent upon the TGFβ pathway, the intratracheal administration of bleomycin leads to the development of severe lung inflammation followed by fibrosis in 2-3 weeks, at which time the mice are sacrificed. Fibrosis is quantified in lung tissue by measuring hydroxyproline, a key component of the collagen that is deposited in fibrotic lung.
Mice. Female CBA/J mice at 8-10 weeks of age were from the Jackson Laboratories (Bar Harbor, Me.). These mice weighed an average of 21.4 g at the start of experiments, with a standard deviation of 1.7 g.
Bleomycin treatment. This was undertaken on day 0 by endotracheal instillation through the oral cavity after exposure of the airway by pulling the tongue. Each mouse received 0.001 units of bleomycin (Bristol-Myers, Evansville, Ind.)/gm body weight in 30 μl of sterile saline, while control mice received an equal volume of sterile saline only.
TM treatment experiments. TM was given in 0.25 ml of water by intragastric gavage once daily, in the doses and times indicated in the various studies as described below.
Hydroxyproline assay. The extent of fibrosis was assessed by assaying hydroxyproline content of whole lung homogenates at the time of sacrifice as previously described (M Gharaee-Kermani et al., J. Leukoc. Biol., 64:657-666 [1998]). Results are expressed as μg hydroxyproline/lung (the lung tissue included both lungs).
Hydroxyproline assay. The extent of fibrosis was assessed by assaying hydroxyproline content of whole-lung homogenates at the time of sacrifice as described in Gharaee-Kermani, et al., J. Leukoc. Biol., 64:657-666 (1998). Hydroxyproline was expressed as micrograms of hydroxyproline per mouse lung (the lung tissue included both lungs).

## [SH-].[SH-].[S]=[Mo]=[S] [TM, tetrathiomolybdate]
α-smooth muscle actin
  lung SMA (α-smooth muscle actin) protein levels, bleomycin-induced increase: inhibited most of the increase
sheep; copper loaded sheep, 50 or 100 mg 2×weekly for up to 11 weeks
  tolerability of intravenous TM: tolerated up to 22 injections of TM without clinical problems
sheep; prophylactic use in commercial sheep flocks, over 400 animals
  adverse side effects: no adverse side effects
TNFα
  Plasma levels of TNFα: significantly lower
TGFβ; Ex 2 Exp 1, bleomycin/TM, day 7, p=0.06
  lung TGFβ protein level (ELISA), bleomycin-induced increase: inhibited this increase
TGFβ; Ex 2 Exp 2, TM from day 5, day 21, not statistically significant
  lung TGFβ protein levels (PAI-1 promoter-luciferase), bleomycin-induced increase: completely inhibited this increase
TGFβ; Ex 2 Exp 3, TM started 5 days prior to bleomycin (Bleo/TM-5), p=0.04
  lung TGFβ protein levels (ELISA): significantly inhibited
Serum ceruloplasmin (Cp); Ex 1 Exp 1, Bleomycin/TM group, sacrifice day 21
  Ceruloplasmin: 13.9 ± 3.3 I.U
Serum ceruloplasmin (Cp); Ex 1 Exp 1, TM alone (group 4)
  mean ceruloplasmin relative to saline controls: about 80%
Serum ceruloplasmin (Cp); Ex 1 Exp 1, TM only group, sacrifice day 21
  Ceruloplasmin: 18.1 ± 3.4 I.U
Serum ceruloplasmin (Cp); Ex 1 Exp 1, bleomycin/TM mice (group 3)
  mean ceruloplasmin level relative to bleomycin animals: about 55%
Serum ceruloplasmin (Cp); TM 0.3 mg/day/mouse, day 14, single mouse
  Ceruloplasmin Values: 23.6 International Units
Serum ceruloplasmin (Cp); TM 0.3 mg/day/mouse, day 21 (sacrifice), mean and standard error of four mice
  Ceruloplasmin Values: 5.4 ± 2.7 International Units
Serum ceruloplasmin (Cp); TM 0.5 mg/day/mouse, day 8, single mouse
  Ceruloplasmin Values: 14.4 International Units
Serum ceruloplasmin (Cp); TM 0.5 mg/day/mouse, day 14, single mouse
  Ceruloplasmin Values: 10.6 International Units
Serum ceruloplasmin (Cp); TM 0.5 mg/day/mouse, day 21, mean and SE of four mice
  Ceruloplasmin Values: 4.5 ± 2.7 International Units
Serum ceruloplasmin (Cp); TM 0.7 mg/day/mouse, day 8, single mouse
  Ceruloplasmin Values: 12.6 International Units
Serum ceruloplasmin (Cp); TM 0.7 mg/day/mouse, day 14, single mouse
  Ceruloplasmin Values: 15.5 International Units
Serum ceruloplasmin (Cp); TM 0.7 mg/day/mouse, day 21, mean and SE of four mice
  Ceruloplasmin Values: 4.7 ± 2.2 International Units
Serum ceruloplasmin (Cp); TM 0.9 mg/day/mouse, day 8, single mouse
  Ceruloplasmin Values: 0.6 International Units
Serum ceruloplasmin (Cp); TM 0.9 mg/day/mouse, day 14, single mouse
  Ceruloplasmin Values: 3.7 International Units
Serum ceruloplasmin (Cp); TM 0.9 mg/day/mouse, day 21, mean and SE of four mice
  Ceruloplasmin Values: 1.8 ± 0.7 International Units
Serum ceruloplasmin (Cp); TM maintenance 0.3 mg/day/mouse, day 8, single mouse
  Ceruloplasmin Values: 20.3 International Units
Serum ceruloplasmin (Cp); Ex 2 Exp 1, TM 1.2 mg/day 4 days before bleomycin then 0.9 mg/day, sacrifice day 7
  mean Cp levels in TM treated groups relative to non-TM treated groups: approximately half
Serum ceruloplasmin (Cp); Ex 2 Exp 2, TM started 5 days after bleomycin, sacrifice day 21
  mean Cp level of bleomycin/TM group as % of the bleomycin group mean: 38%
Serum ceruloplasmin (Cp); Ex 2 Exp 2, sacrifice day 21
  mean Cp of TM control group as % of the saline control group mean: 50%
Serum ceruloplasmin (Cp); daily gavage of 0.7 mg TM/mouse
  serum Cp levels relative to baseline levels: 25-50%
[1]; Ex 1 Exp 1, Bleomycin/TM group
  Hydroxyproline: 162 ± 12 μg/lung
[1]; Ex 1 Exp 1, TM before bleomycin
  fibrosis as measured by hydroxyproline assay: almost completely abrogated fibrosis
[1]; Ex 1 Exp 1, TM only group
  Hydroxyproline: 193 ± 5 μg/lung
[1]; Ex 1 Exp 2, Bleomycin Group, 0.3 mg TM/mouse/day, day 21
  Hydroxyproline (Mean ± SE): 232 ± 4 μg hydroxyproline/lung
[1]; Ex 1 Exp 2, Bleomycin Group, 0.5 mg TM/mouse/day, day 21
  Hydroxyproline (Mean ± SE): 197 ± 15 μg hydroxyproline/lung
[1]; Ex 1 Exp 2, Bleomycin Group, 0.7 mg TM/mouse/day, day 21
  Hydroxyproline (Mean ± SE): 172 ± 22 μg hydroxyproline/lung
[1]; Ex 1 Exp 2, Bleomycin Group, 0.9 mg TM/mouse/day, day 21
  Hydroxyproline (Mean ± SE): 157 ± 14 μg hydroxyproline/lung
[1]; Ex 1 Exp 2, Control Group (Saline only), 0.3 mg TM/mouse/day
  Hydroxyproline (Mean ± SE): 132 ± 3 μg hydroxyproline/lung
[1]; Ex 1 Exp 2, Control Group (Saline only), 0.5 mg TM/mouse/day
  Hydroxyproline (Mean ± SE): 130 ± 5 μg hydroxyproline/lung
[1]; Ex 1 Exp 2, Control Group (Saline only), 0.7 mg TM/mouse/day
  Hydroxyproline (Mean ± SE): 152 ± 10 μg hydroxyproline/lung
[1]; Ex 1 Exp 2, Control Group (Saline only), 0.9 mg TM/mouse/day
  Hydroxyproline (Mean ± SE): 130 ± 8 μg hydroxyproline/lung
[1]; Ex 1 Exp 2, TM 0.3 to 0.9 mg
  protection against bleomycin-induced fibrosis as measured by hydroxyproline accumulation: dose dependent
[1]; Ex 1 Exp 2, no bleomycin
  effect of TM treatment alone on hydroxyproline levels: no effect of TM treatment alone on hydroxyproline levels
[1]; Ex 1 Exp 3, TM given before bleomycin or started at day 4 or 7 after, 1.2 then 0.9 mg/mouse/day
  hydroxyproline production: significant suppression of hydroxyproline production
[1]; Ex 1 Exp 3, no bleomycin
  effect of TM alone on hydroxyproline levels: no effect of TM alone on hydroxyproline levels
[1]; Ex 2 Exp 2, TM from day 5, day 21
  lung hydroxyproline levels, bleomycin-induced increase: completely and significantly inhibited the increase
